Patent US5922891A, “2-substituted 1,8-dihydroxy-9(10H)-anthracenone pharmaceuticals” (priority 1997, dated 1999)
Like-named read-outs stand apart in the source and are kept apart here.

Tests used:
HaCaT cells = experiment: Antiproliferative activity against HaCaT cells (human keratinocyte cell line); type: cell-based; conditions: 48 h, read-out: AA IC50 (antiproliferative activity)
Experimental: HaCaT cells were grown in Dulbecco's modified Eagle's medium (DMEM, No. 041-11954A, Gibco) supplemented with 10% fetal calf serum, penicillin (100 U/mL), and streptomycin (100 μg/mL) in a humidified incubator containing 8% CO2 at 37° C. Cells (2.5·10^4 /1.1 ml per well) were seeded on 24-well multidishes and grown in DMEM. After 24 hours of growth, the medium was replaced with fresh medium and a test compound (0.1-5 μM) was added from freshly made stock solutions, which were prepared in DMSO and diluted with DMEM. The final concentration of DMSO in the culture medium was 0.2%. Controls were performed using DMSO or medium alone. Forty-eight hours after addition of a test compound to the culture, the medium was removed and each well was rinsed with phosphate-buffered saline (PBS, 100 μL). The cells were then incubated with sterile 0.5% trypsin, 0.2% EDTA in PBS for 20 minutes at 37° C. The detached cells from each well were suspended in DMEM and dispersed as single cells by gentle pipetting through an Eppendorf pipette. Cell growth was determined directly by counting the keratinocytes on a Neubauer counting chamber using phase contrast microscopy. Inhibition of cell proliferation was calculated by a comparison of the mean value of the test compound (N=3) with the control (N=6-8) activity: (1-test compound/control)×100.

5-LO in bovine PMNL = target: T1, 5-LO in bovine PMNL (Bos taurus, UniProt F1MQ78); experiment: Inhibition of 5-lipoxygenase (5-HETE and LTB4 biosynthesis) in Ca-ionophore-stimulated bovine PMNL; type: cell-based; conditions: N = 3 or more
T1 construct: The purified PMNLs were suspended at a concentration of; endogenous in cells; host or cells: polymorphonuclear leukocytes isolated from bovine blood
T1 sequence (F1MQ78 1-674): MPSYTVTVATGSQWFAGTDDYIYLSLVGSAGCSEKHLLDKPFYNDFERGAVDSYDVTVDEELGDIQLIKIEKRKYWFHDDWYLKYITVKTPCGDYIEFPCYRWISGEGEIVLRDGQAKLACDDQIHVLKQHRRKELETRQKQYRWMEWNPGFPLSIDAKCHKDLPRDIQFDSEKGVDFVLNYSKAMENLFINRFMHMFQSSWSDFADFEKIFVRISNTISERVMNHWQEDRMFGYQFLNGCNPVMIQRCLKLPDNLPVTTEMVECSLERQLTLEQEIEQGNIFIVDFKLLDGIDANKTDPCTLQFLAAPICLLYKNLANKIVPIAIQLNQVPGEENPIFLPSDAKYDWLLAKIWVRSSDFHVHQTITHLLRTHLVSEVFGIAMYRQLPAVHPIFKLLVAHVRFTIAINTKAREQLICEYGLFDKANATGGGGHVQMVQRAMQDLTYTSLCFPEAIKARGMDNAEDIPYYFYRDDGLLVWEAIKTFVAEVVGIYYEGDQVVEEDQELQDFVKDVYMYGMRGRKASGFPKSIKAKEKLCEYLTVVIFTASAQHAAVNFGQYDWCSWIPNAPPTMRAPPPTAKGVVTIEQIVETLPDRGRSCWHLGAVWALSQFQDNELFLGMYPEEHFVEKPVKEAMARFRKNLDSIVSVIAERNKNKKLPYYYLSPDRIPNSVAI
Experimental: Briefly, PMNLs were prepared from sodium EDTA-anticoagulated bovine blood, essentially as described by Walstra, P. et al., (Biochem. Biophys. Acta, 795:499-503 (1984)). Contaminating platelets were removed by repeated centrifugations at 100 g for 20 minutes. […] Cell counts were conducted with a Sysmex micro cell counter CC-130. Preincubation was performed with 2.4 ml of the suspension and 10 μl of a DMSO stock solution of test compounds at the desired concentrations in phosphate buffered saline (PBS) or vehicle control (DMSO at final concentration of 0.4%) for 15 minutes at 37° C. in a shaking water bath at 50 rpm. […] The incubation mixture was held on ice bath for 20 minutes and then centrifuged at 4000 g for 5 minutes at 0° C. The supernatant was diluted with 5 ml of water and passed through a prewashed (10 ml of methanol and 5 ml of water, sequentially) octadecylsilane reversed phase cartridge (Baker). The eicosanoids were eluted with 3 ml of methanol, diluted with 3 ml of water and subjected to reversed phase HPLC analysis using a 250×4 mm column packed with Nucleosil C18 (7 μm particles; Bischoff, Leonberg, Germany). The isocratic elution conditions of LTB4 were tetrahydrofuran (THF)/methanol/water/acetic acid (25+30+45+0.1), adjusted to pH 5.5 with concentrated NH3, at a flow rate of 0.9 ml/min (Kontron 420 pump), monitored at 280 nm with a Kontron 735 LC UV detector. 5-HETE was monitored at 232 nm using methanol/water/acetic acid (77+23+0.1), pH 5.5 and a flow rate 1.0 ml/min. Data were recorded on a MacLab data acquisition system (WissTech, Germany) and analysis was performed using the application Peaks on an Apple Macintosh Quadra 700 computer. Integrated areas of the peaks were compared to a PGB2 internal standard and to external standards of authentic samples. Molar absorption coefficients of Samuelsson et al., Borgeat, P. and B. Samuelsson, (Proc. Natl. Acad. Sci. USA, 76:2148-2152 (1979)), were used for making calculations. Inhibition was calculated by a comparison of the mean value of test compound (n=3) with control (n=6-8) activity: (1-test compound/control)×100.
See Walstra, P. et al., Biochem Biophys. Acta, 795:499-503 (1984); and Dannhardt et al. J. Pharm. Pharmacol., 44:419-424 (1992). […] (Schroder, J. M., J. Invest. Dermatol., 87:624-629 (1986); Tanzer, et al., Arch. Pharm. (Weinheim), 324:841-846 (1991)).

[1] = Deoxyribose degradation as a measure of hydroxyl radical formation; type: biochemical; conditions: 75 μM test compound; controls < 0.1
Experimental: ^c Deoxyribose degradation as a measure of hydroxyl radical formation
Indicated values are μmoles of malondialdehyde per mmole of deoxyribos
released by 75 μM test compound (controls < 0.1).
Degradation of deoxyribose provides a measurement of the amount of hydroxyl radical formation caused by the test compounds. The assay used to determine degradation of 2-deoxy-D-ribose followed generally the procedures of Gutteridge, J. M. C., Biochem. J., 224: 761-767 (1984) and Laughton, et al., Biochem. Pharmacol., 38: 2859-2865 (1989). The following reagents were added to glass tubes in the order and at the final concentrations listed. 0.3 mL kH2 PO4 --KOH buffer, pH 7.4 (30 mM), 0.2 ml double distilled H2 O, 0.2 ml 2-deoxy-D-ribose (2 mM), 0.2 ml FeCl3.6H2 O (0.1 mM), 0.1 ml 2-substituted anthracenone ([…]). Stock solutions of each of the 2-substituted anthracenone compounds were made up fresh before use. Appropriate blanks and controls using an acetronitrile vehicle were performed.
Final reaction volumes were standardized to 1.0 ml. The reaction mixtures were incubated for 2 hours at 37° C. in a shaking water bath at 50 rpm. 1 ml of 2.8% (w/v) trichloracetic acid and 1 ml of 1% (w/v in 0.05 N NaOH) 2-thiobarbituric acid (TBA) were added, and the samples were heated at 100° C. for 15 minutes and then cooled in an ice bath (5 minutes). 2 ml of each reaction mixture was treated with 0.05 ml of 36% (w/v) HCl and 2 of 1-butanol, followed by vigorous shaking with a vortex mixer (Heidolph) for 15 seconds. The organic layer was separated by centrifugation at 3000 rpm (15 minutes) and absorbance at 532 nm was measured against butanol. Calibration was performed using a malondialdehyde (MDA) standard prepared by hydrolysis of 1,1,3,3-tetraethoxypropane (Gutteridge, J. M. C., Anal. Biochem., 69: 518-526 (1975). TBA reactive material was expressed in terms of μmol MDA per μmol deoxyribose. The results of the assay are provided in Table I.

[2] = Inhibition of AAPH-induced lipid peroxidation in bovine brain phospholipid liposomes; type: biochemical
Experimental: Phospholipids were prepared essentially as described by Gutteridge, J. M. C., (Anal. Biochem., 82: 76-82 (1977)). Bovine brain tissue was cooled on ice, freed from blood vessels and washed repeatedly with 0.15 M NaCl, pH 7.4. The tissue was cut into pieces and then macerated with an ultra-turrax, passed through a fine-meshed sieve, and extracted four times with four times the volume of acetone. The extraction mixture was filtered by suction to remove the acetone, the residue dried under vacuum, and then repeatedly extracted with petroleum ether (40-60) using twice the volume of the original brain homogenate. The combined extracts were filtered, dried at 45° C., and dissolved in ether (one fifth the original brain volume). The mixture was treated with five times the volume of acetone, and the resulting precipitate was collected by suction-filtration, dried and stored under N2 at -20° C. in the dark. Bovine brain phospholipids were weighed into glass tubes and shaken in a vortex mixer (Heidolph) in the presence of five small glass beads (.phi. 4 mm) for 1 minute. The phospholipids were suspended in 0.15 M NaCl, pH 7.4, to a final concentration of 5 mg/ml. The mixture was purged with N2 for 1 minute and vigorously dispersed in a vortex mixer for 5 minutes. The liposomes were allowed to swell for 1 hour at 4° C., and vesicles with a mean size of 1-10 μm were obtained according to the method of Bangham, et al., (J. Mol. Biol., 13:238-252 (1965). The liposomes were stimulated with the azo initiator 2 2'-azobis (2-amidinopropane) hydrochloride according to the method of Gutteridge, J. M. C., (Anal. Biochem. 82:76-82 (1977)).
The following reagents were added to the glass tubes containing stimulating bovine brain phospholipid piposomes in the order and at the final concentrations listed: 0.3 ml HK2 PO4 --KOH buffer, pH 7.4 (30 mM), 0.29 ml double distilled H2 O, 0.2 ml liposomes (1 mg/ml), 0.2 ml FeCl3.H2 O (0.1 mM), 0.01 ml 2-substituted anthracenone compound of the invention (variable concentrations).
Appropriate blanks and controls using the vehicle (acetone) were conducted. The final reaction volumes were standardized to 1.0 ml. The reaction mixtures were incubated for 1 hour at 37° C. in a shaking water bath. […] of 20% (w/v) BHT, 0.5 ml 25% (w/v) HCl and 0.5 ml of 1% 2-thiobarbituric acid were added and the samples were heated at 100° C. for 15 minutes and then cooled in an ice bath (5 minutes). 2 ml of 1-butanol were added and the mixtures were vigorously shaken in a vortex mixer (Heidolph) for 15 seconds. The organic layer was separated by centrifugation at 3000 rpm (15 minutes) and absorbance at 532 nm was measured against butanol.

[3] = AAPH-induced, bovine brain phospholipid liposomes, N = 3 or more, read-out: LPO IC50 (inhibition of lipid peroxidation)

Row | SMILES | IC50 (HaCaT cells) [µM] | IC50 (5-LO in bovine PMNL) [µM] | DD (deoxyribose degradation, malondialdehyde released) [1] | IC50 [2, 3] [µM] | IC50 ([2]; NDGA used as the standard, footnote d, read-out: LPO IC50 of the standard) [µM]
1 | COC(=O)CCCc1ccc2c(c1O)C(=O)c1c(O)cccc1C2 [IIIB, Methyl 4-(9,10-Dihydro-1,8-dihydroxy-9-oxo-2-anthracene) butanoate] | 1.1 | > 30 |  |  | 
2 | COC(=O)C(Cc1ccccc1)c1ccc2c(c1O)C(=O)c1c(O)cccc1C2 (centres unmarked) [IXB, Methyl 2-(9,10-Dihydro-1,8-dihydroxy-9-oxo-2-anthracene)-3-phenylpropionate] | 1.8 | > 30 | 0.01 ± 0.00 μmol of MDA/mmol |  | 
3 | CN(O)C(=O)CCc1ccc2c(c1O)C(=O)c1c(O)cccc1C2 [IID, N-Hydroxy-N-methyl-3-(9,10-dihydro-1,8-dihydroxy-9-oxo-2-anthracene)propionamide] |  |  | 0.92 ± 0.03 μmol of MDA/mmol | 11 | 
4 | CN(O)C(=O)CCCCc1ccc2c(c1O)C(=O)c1c(O)cccc1C2 [IVD, N-Hydroxy-N-methyl-5-(9,10-dihydro-1,8-dihydroxy-9-oxo-2-anthracene)pentanamide] |  |  | 1.36 ± 0.05 μmol of MDA/mmol | 16 | 
5 | COC(=O)c1ccc(C(=O)c2ccc3c(c2O)C(=O)c2c(O)cccc2C3)cc1 [XIIB, Methyl 4-[(9,10-Dihydro-1,8-dihydroxy-9-oxo-2-anthracene)oxomethyl]benzoate] | 1.8 | > 30 | 2.07 ± 0.12 μmol of MDA/mmol |  | 
6 | CC(Cc1ccc(O)c(O)c1)C(C)Cc1ccc(O)c(O)c1 (centres unmarked) [Nordihydroguaiaretic acid (NDGA), Nordihydroguaiaretic acid, reference compound] |  |  |  |  | 2
7 | CN(O)C(=O)CCCCCc1ccc2c(c1O)C(=O)c1c(O)cccc1C2 [VD, N-Hydroxy-N-methyl-6-(9,10-dihydro-1,8-dihydroxy-9-oxo-2-anthracene)hexanamide] | 0.9 |  |  | 15 | 
8 | COC(=O)C(CCc1ccccc1)c1ccc2c(c1O)C(=O)c1c(O)cccc1C2 (centres unmarked) [XB, Methyl 2-(9,10-Dihydro-1,8-dihydroxy-9-oxo-2-anthracene)-4-phenylbutanoate] |  | > 30 | 0.28 ± 0.03 μmol of MDA/mmol |  | 
9 | CN(O)C(=O)CCCc1ccc2c(c1O)C(=O)c1c(O)cccc1C2 [IIID, N-Hydroxy-N-methyl-4-(9,10-dihydro-1,8-dihydroxy-9-oxo-2-anthracene)butanamide] |  |  | 1.50 ± 0.02 μmol of MDA/mmol | 37 | 
10 | COc1c(OC)c(OC(C)=O)c2cc(Cl)ccc2c1OC(C)=O [Ionapalene, reference compound] | 3.2 | 0.5 |  |  | 
11 | O=C(O)CCCCCc1ccc2c(c1O)C(=O)c1c(O)cccc1C2 [VA, 6-(9,10-Dihydro-1,8-dihydroxy-9-oxo-2-anthracene) hexanoic acid] |  | 19 | 2.29 ± 0.03 μmol of MDA/mmol |  | 
